Data published in patent US20220064141A1, “BENZOPYRIDONE HETEROCYCLIC COMPOUND AND USE THEREOF” (BrightGene Bio-Medical Technology Co., Ltd., priority 2019, published 2022).

Assays:
Type in all cases: cell-based
[1] = tested on: A549 human non-small cell lung cancer cells with high expression of KRAS G12S; assay: Cell Titer-Glo cell viability, A549 cells (72 h)
From the text: (§1) Effect Example 2: Pharmacodynamic Assay 2 (Determination of the efficacy of the compounds of the present disclosure on HCT116 human colon cancer cells with high expression of KRAS G13D and A549 human non-small cell lung cancer cells with high expression of KRAS G12S)
(§2) The following method was used to determine the effects of the compounds of the present disclosure on tumor cell proliferation.
(§3) For KRAS G13D subtype, HCT116 human colon cancer cell was used. For KRAS G12S subtype, A549 human non-small cell lung cancer cell was used. The efficacy of the compounds in inhibiting cancer cell viability was determined. HCT116 cells or A549 cells were cultured in a DMEM medium containing 10% fetal bovine serum, 100 U penicillin and […] streptomycin. The cells were cultured in an incubator with 5% CO2 at 37° C. Cancer cell viability was evaluated by determining the content of ATP with Cell Titer-Glo® kit (Luminescent Cell Viability Assay kit, please refer to the manufacturer's instructions for use) and evaluating the inhibition of cell growth.
(§4) The experimental method was proceeded in accordance with the steps in the instructions for the kit, and was described briefly as follows. The test compounds were first dissolved in DMSO to prepare stock solutions, and then the stock solutions were subjected to gradient dilution with the culture media of the corresponding cells, thereby preparing test samples. The final concentrations of the compounds were in the range of 30 μM to 0.01 nM. Tumor cells in logarithmic growth phase were seeded into a 96-well cell culture plate at an appropriate density. After the cell culture plate was left overnight in an incubator with 5% CO2 at 37° C., the test compound samples were added thereto and then the cells were further cultured for 72 hours. After the incubation was complete, an appropriate volume of Cell Titer-Glo® reagent was added into each well, and the cells were incubated at 37° C. for 1 to 4 hours. Then, the […] was read on a microplate reader. The percentage inhibition rates of the compounds at each concentration point were calculated by comparing the absorbance values of the sample wells with that of the control group (0.3% DMSO), and then non-linear regression analysis of the concentration of the compound vs inhibition rate was performed by using GraphPad Prism 5 software, thereby obtaining IC50 values indicating the inhibitory effects of the compounds on cell proliferation.

[2] = tested on: HCT116 human colon cancer cells with high expression of KRAS G13D; assay: Cell Titer-Glo cell viability, HCT116 cells (72 h); conditions: HCT-116
From the text: as §1, §2, §3, §4

[3] = tested on: NCI-H358 human non-small cell lung cancer cell with KRAS G12C mutation; assay: Cell Titer-Glo cell viability, NCI-H358 cells (72 h); conditions: Homo sapiens, numeric values
From the text: Effect Example 1: Pharmacodynamic Assay 1 (Determination of the efficacy of the compounds of the present disclosure on NCI-H358 human non-small cell lung cancer cell with KRAS G12C mutation)
The following method was used to determine the effect of the compounds of the present disclosure on tumor cell proliferation.
as §3, with “For the” for “For”, “G12C” for “G13D”, “NCI-H358” for “HCT116 human colon cancer cell was used. For KRAS G12S subtype, A549 human”, “cells with KRAS G12C mutation were used to determine the” for “cell was used. The”, “viability. NCI-H358” for “viability was determined. HCT116 cells or A549”
as §4, with “reader.” for “reader. The percentage inhibition rates of the compounds at each concentration point were calculated by comparing the absorbance values of the sample wells with that of the control group (0.3% DMSO), and then non-linear regression analysis of the concentration of the compound vs inhibition rate was performed by using GraphPad Prism 5 software, thereby obtaining IC50 values indicating the inhibitory effects of the compounds on cell proliferation.”

Row | SMILES | IC50 [1] | IC50 [2] | IC50 ([3]; NCI-H358, 72 h) | IC50 [3]
1 | C=CC(=O)N1CCN(c2c(C#N)c(=O)n(-c3ccccc3C(C)C)c3cc(-c4c(C)ccc5[nH]ncc45)c(Cl)cc23)[C@@H](C)C1 [Compound I-2-1] | > 3000 nM | > 3000 nM | 1150 nM | 
2 | C=CC(=O)N1CCN(c2ncnc3c(F)c(-c4c(O)cccc4F)c(Cl)cc23)CC1 [ARS-1620, reference compound] | > 3000 nM | > 3000 nM |  | 226 nM
3 | C=CC(=O)N1CCN(c2c(C#N)c(=O)n(-c3ccccc3C(C)C)c3cc(-c4c(C)ccc5[nH]ncc45)c(Cl)cc23)CC1 [Compound I-1] | > 3000 nM | > 3000 nM | 1170 nM | 
